# Assay results as given in patent US20250376445A1, “COMPOUNDS AND METHODS FOR YAP/TEAD MODULATION AND INDICATIONS THEREFOR” (OPNA BIO SA, priority 2023, published 2025).
# Test system: TEAD-dependent transcription
# Assay: TEAD-dependent transcription cell-based reporter assay (MSTO-211H+12XGTIIC luciferase)
# Design: species or system human
# Details: Homo sapiens; MSTO-211H+12XGTIIC reporter cells, 24 hours compound incubation, luminescence normalized to viability; read-out: MSTO-211H GMean IC50 (uM) Cell Assay Reporter Cell Variant: TEAD
# Excerpt: The human mesothelioma cell line MSTO-211H was stably transfected with a pGL4.21 plasmid containing a synthetic promoter with 12 copies of the GTIIC TEAD response element that drives the expression of a luciferase reporter gene^1 using Lipofectamine transfection reagent (Thermo Fisher). Transfected cells were selected using puromycin and single cell clones expressing this construct (referred to as MSTO-211H+12XGTIIC) were generated by limiting dilution. MSTO-211H cells was characterized by genetic alterations in key components of the Hippo pathway^2, resulting in up-regulation of YAP/TEAD-mediated transcription. […] To evaluate TEAD inhibitors, the MSTO-211H+12XGTIIC cell line was seeded in a 96-well plate in 50 μL of culture media at 1×10^4 cells per well and incubated at 37° C. overnight. Serial dilutions of compounds (in total volume of 50 μL of culture media) were added to the cells and incubated at 37° C. for 24 hours. Each plate included cells treated with DMSO as high controls and cells treated with 20 μM of the reference compound K-975 (a known TEAD inhibitor)^3 as low controls. Cell viability was assayed by the addition of 25 μL of CellTiter-Fluor reagent (Promega) followed by a 30-minute incubation at 37° C. and quantification of the fluorescence signal (Ex400/Em505). Subsequently, luciferase expression was assayed by the addition of 25 μL of ONE-Glo reagent (Promega) followed by a 10-minute incubation at room temperature and quantification of the luminescence signal. The luminescence signal was normalized to the fluorescence signal to correct for any loss in cell viability over the 24-hour compound incubation period. The percentage of inhibition of normalized luminescence signal, indicative of compound-mediated inhibition of TEAD-dependent transcription, at individual compound concentrations relative to high and low controls was calculated. The data were analyzed by using nonlinear regression to generate IC50 values for individual compounds.
row,SMILES,IC50 [µM]
1,"O=C(c1ccc(C(F)(F)F)cc1)c1cccc2c1CCN(C(=O)Cc1cocn1)C2 [O-0067, 2-(oxazol-4-yl)-1-(5-(4-(trifluoromethyl)benzoyl)-3,4-dihydroisoquinolin-2(1H)-yl)ethan-1-one]",0.001 to 10
2,"O=C(Cc1c[nH]cn1)N1CCc2c(cccc2C(F)c2ccc(C(F)(F)F)cc2)C1 (stereo not drawn) [O-0068, 1-(5-(fluoro(4-(trifluoromethyl)phenyl)methyl)-3,4-dihydroisoquinolin-2(1H)-yl)-2-(1H-imidazol-4-yl)ethan-1-one]",0.001 to 10
3,"Nc1nc2ccc(C(=O)N3CCc4c(cccc4C(=O)c4ccc(C(F)(F)F)cc4)C3)cc2[nH]1 [O-0069, (2-amino-1H-benzo[d]imidazol-6-yl)(5-(4-(trifluoromethyl)benzoyl)-3,4-dihydroisoquinolin-2(1H)-yl)methanone]",0.001 to 10
4,"O=C(c1cccc2sc(C(F)(F)F)nc12)N1CCc2c(cccc2C(F)c2ccc(C(F)(F)F)cc2)C1 (stereo not drawn) [O-0070, (5-(fluoro(4-(trifluoromethyl)phenyl)methyl)-3,4-dihydroisoquinolin-2(1H)-yl)(2-(trifluoromethyl)benzo[d]thiazol-4-yl)methanone]",0.001 to 10
5,"O=C(c1ccc(C(F)(F)F)cc1)c1cccc2c1CCN(C(=O)Cc1ncc[nH]1)C2 [O-0071, 2-(1H-imidazol-2-yl)-1-(5-(4-(trifluoromethyl)benzoyl)-3,4-dihydroisoquinolin-2(1H)-yl)ethan-1-one]",0.001 to 10
6,"O=C(c1ccc(C(F)(F)F)cc1)c1cccc2c1CCN(C(=O)c1ncc(C(F)(F)F)[nH]1)C2 [O-0072, (5-(trifluoromethyl)-1H-imidazol-2-yl)(5-(4-(trifluoromethyl)benzoyl)-3,4-dihydroisoquinolin-2(1H)-yl)methanone]",0.001 to 10
7,"O=C(c1ccc(C(F)(F)F)cc1)c1cccc2c1CCN(C(=O)c1ccc3nc(C(F)(F)F)[nH]c3c1)C2 [O-0073, (2-(trifluoromethyl)-1H-benzo[d]imidazol-6-yl)(5-(4-(trifluoromethyl)benzoyl)-3,4-dihydroisoquinolin-2(1H)-yl)methanone]",0.001 to 10
8,"O=C(c1ccc(C(F)(F)F)cc1)c1cccc2c1CCN(C(=O)c1ccc3nc[nH]c3c1)C2 [O-0074, (2-(1H-benzo[d]imidazole-6-carbonyl)-1,2,3,4-tetrahydroisoquinolin-5-yl)(4-(trifluoromethyl)phenyl)methanone]",0.001 to 10
9,"O=C(c1ccc(C(F)(F)F)cc1)c1cccc2c1CCN(C(=O)c1ccc3[nH]ccc3c1)C2 [O-0075, (2-(1H-indole-5-carbonyl)-1,2,3,4-tetrahydroisoquinolin-5-yl)(4-(trifluoromethyl)phenyl)methanone]",0.001 to 10
10,"O=C(c1ccc(C(F)(F)F)cc1)c1cccc2c1CCN(C(=O)Cc1cscn1)C2 [O-0076, 2-(thiazol-4-yl)-1-(5-(4-(trifluoromethyl)benzoyl)-3,4-dihydroisoquinolin-2(1H)-yl)ethan-1-one]",0.001 to 10
11,"CS(=O)(=O)CCC(=O)N1CCc2c(cccc2C(F)c2ccc(C(F)(F)F)cc2)C1 (stereo not drawn) [O-0077, 1-(5-(fluoro(4-(trifluoromethyl)phenyl)methyl)-3,4-dihydroisoquinolin-2(1H)-yl)-3-(methylsulfonyl)propan-1-one]",0.001 to 10
12,"COC(c1ccc(C(F)(F)F)cc1)c1cccc2c1CCN(C(=O)CCS(C)(=O)=O)C2 (stereo not drawn) [O-0078, 1-(5-(methoxy(4-(trifluoromethyl)phenyl)methyl)-3,4-dihydroisoquinolin-2(1H)-yl)-3-(methylsulfonyl)propan-1-one]",0.001 to 10
13,"O=C(Cc1cscn1)N1CCc2c(Cc3ccc(C(F)(F)F)cc3)cccc2C1 [O-0079, 2-(thiazol-4-yl)-1-(5-(4-(trifluoromethyl)benzyl)-3,4-dihydroisoquinolin-2(1H)-yl)ethan-1-one]",0.001 to 10
14,"O=C(Cc1c[nH]cn1)N1CCc2c(Cc3ccc(C(F)(F)F)cc3)cccc2C1 [O-0080, 2-(1H-imidazol-4-yl)-1-(5-(4-(trifluoromethyl)benzyl)-3,4-dihydroisoquinolin-2(1H)-yl)ethan-1-one]",0.001 to 10
15,"CS(=O)(=O)CCC(=O)N1CCc2c(cccc2C(=O)c2ccc(C(F)(F)F)cc2)C1 [O-0081, 3-(methylsulfonyl)-1-(5-(4-(trifluoromethyl)benzoyl)-3,4-dihydroisoquinolin-2(1H)-yl)propan-1-one]",0.001 to 10
16,"CS(=O)(=O)CCC(=O)N1CCc2c(cccc2C(O)c2ccc(C(F)(F)F)cc2)C1 (stereo not drawn) [O-0082, 1-(5-(hydroxy(4-(trifluoromethyl)phenyl)methyl)-3,4-dihydroisoquinolin-2(1H)-yl)-3-(methylsulfonyl)propan-1-one]",0.001 to 10
17,"C=CC(=O)N1CCc2cc(-c3ccc(C(F)(F)F)cc3)ccc2C1 [O-0110, 1-(6-(4-(trifluoromethyl)phenyl)-3,4-dihydroisoquinolin-2(1H)-yl)prop-2-en-1-one]",0.001 to 10
18,"C=CS(=O)(=O)N1CCc2cc(-c3ccc(C(F)(F)F)cc3)ccc2C1 [O-0111, 6-(4-(trifluoromethyl)phenyl)-2-(vinylsulfonyl)-1,2,3,4-tetrahydroisoquinoline]",0.001 to 10
19,"C=CC(=O)N1CCc2ccc(-c3ccc(C(F)(F)F)cc3)cc2C1 [O-0113, 1-(7-(4-(trifluoromethyl)phenyl)-3,4-dihydroisoquinolin-2(1H)-yl)prop-2-en-1-one]",0.001 to 10
20,"C=CS(=O)(=O)N1CCc2ccc(-c3ccc(C(F)(F)F)cc3)cc2C1 [O-0114, 7-(4-(trifluoromethyl)phenyl)-2-(vinylsulfonyl)-1,2,3,4-tetrahydroisoquinoline]",0.001 to 10
21,"C=CC(=O)N1CCc2c(cccc2-c2ccc(C(F)(F)F)cc2)C1 [O-0116, 1-(5-(4-(trifluoromethyl)phenyl)-3,4-dihydroisoquinolin-2(1H)-yl)prop-2-en-1-one]",0.001 to 10
22,"C=CS(=O)(=O)N1CCc2c(cccc2-c2ccc(C(F)(F)F)cc2)C1 [O-0117, 5-(4-(trifluoromethyl)phenyl)-2-(vinylsulfonyl)-1,2,3,4-tetrahydroisoquinoline]",0.001 to 10
23,"O=C(CCS(=O)(=O)C(F)(F)F)N1CCc2cc(-c3ccc(C(F)(F)F)cc3)ccc2C1 [O-0128, 1-(6-(4-(trifluoromethyl)phenyl)-3,4-dihydroisoquinolin-2(1H)-yl)-3-((trifluoromethyl)sulfonyl)propan-1-one]",0.001 to 10
24,"O=C(CCS(=O)(=O)C(F)(F)F)N1CCc2cc(-c3ccc(C(F)(F)F)c(F)c3)ccc2C1 [O-0130, 1-(6-(3-fluoro-4-(trifluoromethyl)phenyl)-3,4-dihydroisoquinolin-2(1H)-yl)-3-((trifluoromethyl)sulfonyl)propan-1-one]",0.001 to 10
25,"C[C@@H](Nc1ccccn1)C(=O)N1CCc2c(cccc2-c2ccc(C(F)(F)F)cc2)C1 [O-0131, (R)-2-(pyridin-2-ylamino)-1-(5-(4-(trifluoromethyl)phenyl)-3,4-dihydroisoquinolin-2(1H)-yl)propan-1-one]",0.001 to 10
26,"C[C@@H](NC(=O)c1cccc(N)n1)C(=O)N1CCc2c(cccc2-c2ccc(C(F)(F)F)cc2)C1 [O-0132, (R)-6-amino-N-(1-oxo-1-(5-(4-(trifluoromethyl)phenyl)-3,4-dihydroisoquinolin-2(1H)-yl)propan-2-yl)picolinamide]",0.001 to 10

# Same assay, conditions: MSTO-211H+12XGTIIC reporter cells, 24 hours compound incubation, luminescence normalized to viability; read-out: MSTO-211H GMean IC50 (uM) Cell Assay Reporter Cell Variant: TEAD
row,SMILES,IC50 [µM]
1,"O=C(CCS(=O)(=O)C(F)(F)F)N1CCc2c(cccc2C(F)c2ccc(C(F)(F)F)nc2)C1 (stereo not drawn) [O-0066, 1-(5-{fluoro[6-(trifluoromethyl)-3-pyridyl]methyl}-1,2,3,4-tetrahydro-2-isoquinolyl)-3-(trifluoromesyl)-1-propanone]",0.001 to 10
